Several values for one entry are separate records, joined by “and”; a condition that tells them apart may be missing. Equal values may be shown once.
Experiments:
[1] = test system: adrenodoxin–CYP11B2 fusion protein; assay type: binding, human; conditions: fusion versus isolated CYP11B2
[2] = molecular target: T1, adrenodoxin–CYP11B2 fusion protein (Homo sapiens, UniProt P10109+P19099); assay type: binding; conditions: Adx-CYP11B2 fusion 0.2 μM, 5 cm path length
T1 sequence (P10109+P19099 with tags, fused parts or gaps): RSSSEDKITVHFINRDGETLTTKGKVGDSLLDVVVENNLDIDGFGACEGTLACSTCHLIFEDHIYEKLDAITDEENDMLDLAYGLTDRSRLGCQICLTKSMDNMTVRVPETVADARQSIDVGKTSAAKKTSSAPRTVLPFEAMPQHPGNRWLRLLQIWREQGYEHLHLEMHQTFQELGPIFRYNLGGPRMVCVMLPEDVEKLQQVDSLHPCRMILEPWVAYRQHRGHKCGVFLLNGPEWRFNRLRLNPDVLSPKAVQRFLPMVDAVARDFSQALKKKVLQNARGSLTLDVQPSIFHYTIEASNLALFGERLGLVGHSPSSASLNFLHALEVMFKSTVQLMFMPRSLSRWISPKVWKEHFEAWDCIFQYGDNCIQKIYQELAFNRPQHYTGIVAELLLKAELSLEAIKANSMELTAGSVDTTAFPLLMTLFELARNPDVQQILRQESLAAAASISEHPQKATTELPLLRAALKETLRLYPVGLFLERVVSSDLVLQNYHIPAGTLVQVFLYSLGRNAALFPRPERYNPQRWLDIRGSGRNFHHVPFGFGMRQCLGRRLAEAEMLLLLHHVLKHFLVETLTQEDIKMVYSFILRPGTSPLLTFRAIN

CYP11B2 = molecular target: T2, CYP11B2 (Homo sapiens, UniProt P19099); assay type: binding; conditions: isolated CYP11B2 0.2 μM, 5 cm path length
T2 sequence (P19099 30-503 limits assumed): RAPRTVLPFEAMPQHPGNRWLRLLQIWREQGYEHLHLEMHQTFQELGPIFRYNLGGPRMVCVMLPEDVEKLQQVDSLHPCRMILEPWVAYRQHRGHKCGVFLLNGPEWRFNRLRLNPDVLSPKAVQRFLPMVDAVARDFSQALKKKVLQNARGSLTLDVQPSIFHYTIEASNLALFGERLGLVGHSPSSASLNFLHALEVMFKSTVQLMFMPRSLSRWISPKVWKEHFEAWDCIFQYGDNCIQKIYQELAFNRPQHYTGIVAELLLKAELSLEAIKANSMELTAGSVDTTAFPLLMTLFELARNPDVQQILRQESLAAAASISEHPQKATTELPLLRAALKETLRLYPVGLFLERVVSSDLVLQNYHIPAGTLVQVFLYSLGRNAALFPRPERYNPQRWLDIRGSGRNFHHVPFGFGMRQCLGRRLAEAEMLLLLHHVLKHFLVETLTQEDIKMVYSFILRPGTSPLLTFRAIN

increase of Amax (enzyme population binding inhibitor at saturation) [1]: ~1.7 fold and 1.7 fold | increase of Kd [1]: 1.8 fold | Amax [2]: 0.032 | Amax (CYP11B2): 0.019
SMILES: N#Cc1ccc([C@H]2CCc3cncn32)c(F)c1 [LCI699, osilodrostat]

From paper PMC8215293 (The Journal of Biological Chemistry, 2021)
